Here are results for 5 molecules from US20100120787A1, “MODIFICATION OF AMYLOID-BETA LOAD IN NON-BRAIN TISSUE” (MODGENE, LLC, priority 2008, published 2010).

What is called log P is a log measure of how a compound divides between an organic and an aqueous phase.

For one data set, the system named is Notch signaling. As to conditions: while reducing Aβ production; cited from earlier work.
Data set [1] relates to primary neurons prepared from cerebral cortex. As to conditions: embryonic day 18 rats; cited from earlier work.
In another data set the test system is Aβ accumulation in brain. The note with it: intrathecal delivery by osmotic minipumps, guinea pigs; cited from earlier work.
The conditions of data set [2]: pH 8; cited from earlier work.
For data set [3] the following is noted: humans; cited from earlier work.
For data set [4] the following is noted: cited from earlier work.
The next data set concerns Aβ hexamers in plasma. Briefly: Plasma (blood) Aβ levels in mice after intraperitoneal STI-571, Western blot/ELISA. Type of data set: in vivo, mouse. The protocol: […]. Wild-type C57Bl/6 and DBA/2J male mice (age 8-12 weeks) were administered drug or vehicle twice daily for 7 days by intraperitoneal injection. […]. […] See, for example, Gleevec Prescribing Information 2003 revision T2003-09; Printed in U.S.A. 89019001 (Novartis), incorporated herein by reference.
Animals were sacrificed 12 hr after the last injection. Individual mice were anesthetized with isoflurane and blood samples (100-300ul) taken by cardiac puncture with heparinized syringes. Samples were placed on ice for 30 minutes in the presence of EDTA and then centrifuged for 20 minutes at 16,000×g at 4° C. The plasma fraction was removed and stored at −80° C. Brains were removed and frozen rapidly on dry ice and stored at −80° C.
Detection of mouse Aβ1-40 in blood and brain samples was performed by using a commercially available immunoassay kit (Biosource mouse Aβ1-40, Catalog No. KMB3481, Invitrogen, Carlsbad, Calif.) or by Western blot. Mouse brain samples were prepared by homogenizing brain tissue in a polytron in the presence of 5M guanidine HCl and 50 mM Tris HCl, pH 8.0 as described in the assay protocol. […]
Blood samples were diluted 1:5 in standard diluent buffer. Samples were assayed in duplicate and OD450 measured on a Tecan infinite 2000 plate reader. […]
For orientation: A western blot detects proteins with antibodies after separation by electrophoresis.

For data set [5] the following is noted: cited from earlier work. The source holds these as a separate data set.
The conditions of data set [6]: statement in words, cited from earlier work.

Read-outs that look alike come from different tables or passages of the source.

Turning to “6-(2,6-dichlorophenyl)-8-methyl-2-(methylsulfanylphenyl-amino)-8H-pyrido[2,3-d]pyrimidin-7-one [inhibitor 2]”, the “effect on Notch signaling” value in the data set on Notch signaling was “without affecting Notch signaling”. For the same molecule, the “production of Aβ” value in [1] is “reduce production of Aβ”. Besides, in the data set with Aβ accumulation in brain, the “Aβ accumulation in brain” value is “decrease in Aβ accumulation in brain”.
Take `COc1cc([S+](C)[O-])ccc1-c1nc2ncccc2[nH]1` (centres unmarked) [ARL115, sulmazole]: in data set [2], the “log P” value is 1.17. For the same molecule, the CNS side effects result in data set [3] was “lack the CNS side effects”.
For the molecule `COc1ccc(-c2nc3ncccc3[nH]2)c(OC)c1.Cl` [ARL-57], the lipophilicity (log P) in data set [2] is on record as 2.59. In addition, in data set [3], the CNS side effects result is listed as “spectacular bright color vision”.
Consider `Cc1ccc(NC(=O)c2ccc(CN3CCNCC3)cc2)cc1Nc1nccc(-c2cccnc2)n1` [N-desmethyl derivative], for which, in [4] (humans), the “plasma AUC of metabolite relative to the AUC for imatinib” value is listed as “about 15%”. In addition, the elimination half-life in data set [4] (oral administration in healthy volunteers) was approximately 40 h.
For the molecule `Cc1ccc(NC(=O)c2ccc(CN3CCN(C)CC3)cc2)cc1Nc1nccc(-c2cccnc2)n1` [STI-571], in the data set on Aβ hexamers in plasma (20 mg/kg IP twice daily for 7 days, B6 mice), the “reduction of plasma levels of Aβ” value was “approximately 50%”. For the same molecule, in the data set on Aβ hexamers in plasma (highest dose (100 mg/kg) IP twice daily for 7 days, young D2 mice), the “reduction of circulating Aβ” value is “approximately 75%”. Moreover, the “absorption after oral administration” value in [5] (human, in vivo, po) is “rapidly absorbed”. In addition, in data set [5] (human, in vivo), the “mean AUC versus dose” value is recorded as “did not increase proportionally with increasing dose”. The “Cmax (time)” value in data set [5] (pediatric patients, oral) was 2 to 4 h. Moreover, the “penetration of the blood-brain barrier” value in data set [6] is on record as “poor penetration of the blood-brain barrier”; in data set [6] (listed as GLEEVEC/STI-571), “poor penetration of the blood-brain barrier”; in data set [6] (listed as imatinib), “does not substantially penetrate the blood brain barrier”.
